Data from US6953789B2, “Thiol compounds, their production and use” (Takeda Chemical Industries, Ltd., priority 1998, dated 2005).

Molecular target: T1, recombinant human MMP-13 (Homo sapiens, UniProt P45452)
T1 construct: made in house; host or cells: baculovirus (pBlueBac4 / Bac-N-Blue; virus made in Sf9), expressed in High-Five insect cells; culture supernatant used
Test: Assay of MMP-13 inhibiting activity (fluorogenic peptide substrate)
Format: biochemical
Conditions: 37° C., 2 hours
Text: Based on the sequence described in the literature by Freije, J. M. et al (Journal of Biological Chemistry, 269: 16766-16773, 1994) and using a PCR method known per se, a human MMP-13 cDNA was obtained.
A pBlueBac4 (Invitrogen) and a Baculovirus vector Bac-N-Blue (Invitrogen) to each of which the human MMP-13 cDNA obtained above was integrated were co-transfected to an Sf9 cell to obtain a MMP-13-expressing recombinant virus.
The recombinant virus thus obtained was infected to a High-Five cell (Invitrogen), and the culture supernatant after three days was employed as an enzyme solution. Experiment 2 Assay of MMP-13 inhibiting activity
75 μl of a sample containing the recombinant human MMP-13, 200 mM sodium chloride, 20 mM calcium chloride, 0.1% Brij 35, 1 mM 2-mercaptoethanol, 200 mM tris-HCl buffer solution (pH7.5) and a test substance at various concentrations was treated with 25 μl of 40 μM MOCAc-Pro-Leu-Gly-Leu-A2pr(DNP)-Ala-Arg-NH2 (PEPTIDE KENKYUSHO) to initiate a reaction and kept at 37° C. for 2 hours, and then 100 μl of 500 mM sodium acetate-HCl buffer solution (pH3.0) was added to terminate the reaction.
The level of liberated MOCAc-Pro-Leu-Gly was determined using a fluorophotometer (MTP-32/F2: CORONA DENKI) at the excitation wavelength of 330 nm and the fluorescent wavelength of 405 nm. The fluorescent level of the reaction in the absence of a test substance was regarded as 100%, and the concentration of each test substance required for achieving 50% inhibition was indicated as IC50.

IC50 (Table 3) [nM] | Structure (SMILES) | IC50 (Table 12) [nM]
11 | CC(C)C(=O)S[C@@H]1CC(=O)N(Cc2ccc(Oc3ccccc3)cc2)C1 [Example 67, S-[(3R)-5-oxo-1-(4-phenoxybenzyl)pyrrolidinyl]2-methylpropanethioate] | 
2 | O=C(SC1CC(=O)N(Cc2ccc(Oc3ccccc3)cc2)C1)C(c1ccccc1)c1ccccc1 (stereo not drawn) [Example 70, S-[5-oxo-1-(4-phenoxybenzyl)-3-pyrrolidinyl] 2,2-diphenylethanethioate] | 
0.89 | CCOC(=O)CC(=O)S[C@@H]1CC(=O)N(Cc2ccc(Oc3ccccc3)cc2)C1 [Example 71, Ethyl 3-oxo-3-{[(3R)-5-oxo-1-(4-phenoxybenzyl)pyrrolidinyl]sulfanyl}propanoate] | 
2.4 | CC(C)(C)OC(=O)CC(=O)S[C@@H]1CC(=O)N(Cc2ccc(Oc3ccccc3)cc2)C1 [Example 72, t-Butyl 3-oxo-3-{[(3R)-5-oxo-1-(4-phenoxybenzyl)pyrrolidinyl]sulfanyl}propanoate] | 
11 | O=C(O)CC(=O)S[C@@H]1CC(=O)N(Cc2ccc(Oc3ccccc3)cc2)C1 [Example 73, 3-Oxo-3-{[(3R)-5-oxo-1-(4-phenoxybenzyl)pyrrolidinyl]sulfanyl}propanoic acid] | 
5.4 | CCOC(=O)CCC(=O)S[C@@H]1CC(=O)N(Cc2ccc(Oc3ccccc3)cc2)C1 [Example 74, Ethyl 4-oxo-4-{[(3R)-5-oxo-1-(4-phenoxybenzyl)pyrrolidinyl]sulfanyl}butanoate] | 
8 | O=C(O)CCC(=O)S[C@@H]1CC(=O)N(Cc2ccc(Oc3ccccc3)cc2)C1 [Example 75, 4-Oxo-4-{[(3R)-5-oxo-1-(4-phenoxybenzyl)pyrrolidinyl]sulfanyl}butanoic acid] | 
1.2 | CNC(=S)S[C@@H]1CC(=O)N(Cc2ccc(Oc3ccccc3)cc2)C1 [Example 76] | 
1.6 | CCNC(=S)S[C@@H]1CC(=O)N(Cc2ccc(Oc3ccccc3)cc2)C1 [Example 77] | 
> 10000 | COC(=O)SS[C@@H]1CC(=O)N(Cc2ccc(Oc3ccccc3)cc2)C1 [Example 78, (4R)-4-[(Methoxycarbonyl)disulfanyl]-2-oxo-1-(4-phenoxybenzyl)pyrrolidine] | 
100 | CCSS[C@@H]1CC(=O)N(Cc2ccc(Oc3ccccc3)cc2)C1 [Example 79, (4R)-4-(Ethyldisulfanyl)-1-(4-phenoxybenzyl)-2-pyrrolidinone] | 
1000 | CCCCCCSS[C@@H]1CC(=O)N(Cc2ccc(Oc3ccccc3)cc2)C1 [Example 80, (4R)-4-(Hexyldisulfanyl)-1-(4-phenoxybenzyl)-2-pyrrolidinone] | 
1000 | CC(C)(C)SS[C@@H]1CC(=O)N(Cc2ccc(Oc3ccccc3)cc2)C1 [Example 81, (4R)-4-(t-Butyldisulfanyl)-1-(4-phenoxybenzyl)-2-pyrrolidinone] | 
50 | CCOC(=O)CSS[C@@H]1CC(=O)N(Cc2ccc(Oc3ccccc3)cc2)C1 [Example 82] | 
400 | O=C(O)CSS[C@@H]1CC(=O)N(Cc2ccc(Oc3ccccc3)cc2)C1 [Example 83] | 
460 | O=C(O)CCSS[C@@H]1CC(=O)N(Cc2ccc(Oc3ccccc3)cc2)C1 [Example 85] | 
500 | O=C(O)c1ccccc1SS[C@@H]1CC(=O)N(Cc2ccc(Oc3ccccc3)cc2)C1 [Example 86] | 
600 | O=C1C[C@@H](SSc2ccccc2[N+](=O)[O-])CN1Cc1ccc(Oc2ccccc2)cc1 [Example 87, (4R)-4-[(2-Nitrophenyl)disulfanyl)-1-(4-phenoxybenzyl)-2-pyrrolidinone] | 
670 | C/C(=C(\CCO)SS[C@@H]1CC(=O)N(Cc2ccc(Oc3ccccc3)cc2)C1)N(C=O)Cc1cnc(C)nc1N [Example 88, (4-Amino-2-methyl-5-pyrimidinyl)methyl((Z)-4-hydroxy-1-methyl-2-{[(3R)-5-oxo-1-(4-phenoxybenzyl)pyrrolidinyl]disulfanyl}-1-butenyl)formamide] | 
700 | CS[C@@H]1CC(=O)N(Cc2ccc(Oc3ccccc3)cc2)C1 [Example 89, (4R)-4-(Methylsulfanyl)-1-(4-phenoxybenzyl)-2-pyrrolidinone] | 

IC50 (Table 3) [nM] | Structure (SMILES) | IC50 (Table 12) [nM]
5000 | O=C1C[C@@H](SCCO)CN1Cc1ccc(Oc2ccccc2)cc1 [Example 90, (4R)-4-[(2-Hydroxyethyl)sulfanyl)-1-(4-phenoxybenzyl)-2-pyrrolidinone] | 
1000 | O=C(O)CS[C@@H]1CC(=O)N(Cc2ccc(Oc3ccccc3)cc2)C1 [Example 91, 2-{[(3R)-5-Oxo-1-(4-phenoxybenzyl)pyrrolidinyl]sulfanyl}acetic acid] | 
2000 | CCOC(=O)CCS[C@@H]1CC(=O)N(Cc2ccc(Oc3ccccc3)cc2)C1 [Example 92, Ethyl 3-{[(3R)-5-oxo-1-(4-phenoxybenzyl)pyrrolidinyl]sulfanyl}propanoate] | 
6000 | O=C(O)CCS[C@@H]1CC(=O)N(Cc2ccc(Oc3ccccc3)cc2)C1 [Example 93, 3-{[(3R)-5-Oxo-1-(4-phenoxybenzyl)pyrrolidinyl]sulfanyl}propanoic acid] | 
300 | O=C1CC(SCc2ccc(Br)cc2)CN1Cc1ccc(Oc2ccccc2)cc1 (centres unmarked) [Example 94, 4-[(4-Bromobenzyl)sulfanyl)-1-(4-phenoxybenzyl)-2-pyrrolidinone] | 
400 | COC(=O)c1ccc(CS[C@@H]2CC(=O)N(Cc3ccc(Oc4ccccc4)cc3)C2)cc1 [Example 95, Methyl 4-({[(3R)-5-oxo-1-(4-phenoxybenzyl)pyrrolidinyl]sulfanyl}methyl)benzoate] | 
700 | O=C(O)c1ccc(CS[C@@H]2CC(=O)N(Cc3ccc(Oc4ccccc4)cc3)C2)cc1 [Example 96, 4-({[(3R)-5-oxo-1-(4-phenoxybenzyl)pyrrolidinyl]sulfanyl}methyl)benzoic acid] | 
2000 | O=C1CC(SCCS(=O)(=O)c2ccccc2)CN1Cc1ccc(Oc2ccccc2)cc1 (centres unmarked) [Example 97, 1-(4-phenoxybenzyl)-4-{[2-(phenylsulfonyl)ethyl]sulfanyl}-2-pyrrolidinone] | 
200 | COCS[C@@H]1CC(=O)N(Cc2ccc(Oc3ccccc3)cc2)C1 [Example 98, (4R)-4-[(Methoxymethyl)sulfanyl]-1-(4-phenoxybenzyl)-2-pyrrolidinone] | 
7 | O=C1OC(S[C@@H]2CC(=O)N(Cc3ccc(Oc4ccccc4)cc3)C2)c2ccccc21 (stereo partly drawn) [Example 99, (4R)-4-[(3-Oxo-1,3-dihydro-2-benzofuran-1-yl)sulfanyl]-1-(4-phenoxybenzyl)-2-pyrrolidinone] | 
2000 | CC(=O)NCS[C@@H]1CC(=O)N(Cc2ccc(Oc3ccccc3)cc2)C1 [Example 100, N-({[(3R)-5-Oxo-1-(4-phenoxybenzyl)pyrrolidinyl]sulfanyl}methyl)acetamide] | 
3000 | CC(C)(C)C(=O)NCS[C@@H]1CC(=O)N(Cc2ccc(Oc3ccccc3)cc2)C1 [Example 101, 2,2-Dimethyl-N-({[(3R)-5-oxo-1-(4-phenoxybenzyl)pyrrolidinyl]sulfanyl}methyl)propanamide] | 
100 | O=C(NCS[C@@H]1CC(=O)N(Cc2ccc(Oc3ccccc3)cc2)C1)c1ccccc1 [Example 102, N-({[(3R)-5-oxo-1-(4-phenoxybenzyl)pyrrolidinyl]sulfanyl}methyl)benzamide] | 
300 | CCOC(=O)NCS[C@@H]1CC(=O)N(Cc2ccc(Oc3ccccc3)cc2)C1 [Example 103, Ethyl {[(3R)-5-oxo-1-(4-phenoxybenzyl)pyrrolidinyl]sulfanyl}methylcarbamate] | 
200 | O=C1C[C@@H](SCN2C(=O)c3ccccc3C2=O)CN1Cc1ccc(Oc2ccccc2)cc1 [Example 104, 2-({[(3R)-5-oxo-1-(4-phenoxybenzyl)pyrrolidinyl]sulfanyl}methyl)-1H-isoindole-1,3-(2H)-dione] | 
40 | O=C1CC(S[C@@H]2CC(=O)N(Cc3ccc(Oc4ccccc4)cc3)C2)C(=O)N1 (stereo partly drawn) [Example 105, 3-{[(3R)-5-Oxo-1-(4-phenoxybenzyl)pyrrolidinyl]sulfanyl}-2,5-pyrrolidinedione] | 
20 | CN1C(=O)CC(S[C@@H]2CC(=O)N(Cc3ccc(Oc4ccccc4)cc3)C2)C1=O (stereo partly drawn) [Example 106, 1-Methyl-3-{[(3R)-5-oxo-1-(4-phenoxybenzyl)pyrrolidinyl]sulfanyl}-2,5-pyrrolidinedione] | 
30 | CCOC(=O)S[C@@H]1CC(=O)N(Cc2ccc(Oc3ccccc3)cc2)C1 [Example 107, O-Ethyl S-[(3R)-5-oxo-1-(4-phenoxybenzyl)pyrrolidinyl]carbanothioate] | 
 | CC(=O)SC1CCC(=O)N(Cc2ccc(Oc3ccccc3)cc2)C1 (stereo not drawn) [Example 108, S-[6-Oxo-1-(4-phenoxybenzyl)-3-piperidinyl]ethanethioate] | 300

Structure (SMILES) | IC50 (Table 3) [nM] | IC50 (Table 12) [nM]
O=C(Cc1ccccc1)SC1CC(=O)N(Cc2ccc(Oc3ccccc3)cc2)C1 (stereo not drawn) [Example 68, S-[5-oxo-1-(4-phenoxybenzyl)-3-pyrrolidinyl]2-phenylethanethioate] | 2 | 
O=C(Cc1ccc(Cl)cc1)SC1CC(=O)N(Cc2ccc(Oc3ccccc3)cc2)C1 (stereo not drawn) [Example 69, S-[5-oxo-1-(4-phenoxybenzyl)-3-pyrrolidinyl]-(4-chlorophenyl)ethanethioate] | 20 | 
